The results in this text go back to patent publication US9708334B2, “Substituted 2,4,5,6-tetrahydropyrrolo[3,4-c]pyrazole and 4,5,6,7-tetrahydro-2H-pyrazolo[4,3-c]pyridine compounds as GlyT1 inhibitors” (DART NEUROSCIENCE (CAYMAN) LTD., priority 2014, dated 2017).

The target of the assay is T1, GlyT1 (Homo sapiens, UniProt P48067).
T1 construct: expressed in transfected cells
T1 sequence (P48067 1-706): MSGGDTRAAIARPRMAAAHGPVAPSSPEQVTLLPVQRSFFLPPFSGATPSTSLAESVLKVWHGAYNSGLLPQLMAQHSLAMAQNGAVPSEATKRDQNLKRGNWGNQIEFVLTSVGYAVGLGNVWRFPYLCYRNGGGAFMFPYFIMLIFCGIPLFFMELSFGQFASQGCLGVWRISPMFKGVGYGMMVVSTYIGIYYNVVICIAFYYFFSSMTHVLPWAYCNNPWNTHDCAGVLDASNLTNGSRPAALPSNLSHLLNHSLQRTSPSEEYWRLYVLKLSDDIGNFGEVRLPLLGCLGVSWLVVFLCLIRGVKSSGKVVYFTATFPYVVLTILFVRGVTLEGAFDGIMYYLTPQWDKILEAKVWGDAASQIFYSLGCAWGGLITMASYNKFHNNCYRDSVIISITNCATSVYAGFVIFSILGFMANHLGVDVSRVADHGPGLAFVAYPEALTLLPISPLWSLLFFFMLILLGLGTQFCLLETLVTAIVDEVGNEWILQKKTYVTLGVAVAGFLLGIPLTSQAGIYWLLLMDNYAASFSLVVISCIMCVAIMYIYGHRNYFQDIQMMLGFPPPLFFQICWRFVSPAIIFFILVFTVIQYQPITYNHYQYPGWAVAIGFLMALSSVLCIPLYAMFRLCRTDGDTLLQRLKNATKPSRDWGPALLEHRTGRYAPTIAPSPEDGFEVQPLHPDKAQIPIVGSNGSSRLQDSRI
The assay can be described thus: Glycine Transporter 1 (GlyT1) uptake assay, scintillation proximity assay of [14C]-glycine uptake. In kind it is cell-based. Conditions: SPA, four parameter logistic fit, read-out: GlyT1 (pIC50) (converted). The method in brief: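 [14C]-glycine uptake read by scintillation proximity on a plate counter. IC50 from four-parameter logistic fit of dose-response data.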
Regarding `C[C@H](Oc1ccc(C#N)c(Cl)c1C(=O)N1CCc2nn(-c3ccncc3F)cc2C1)C(F)(F)F` [Example 244, 2-Chloro-3-[2-(3-fluoropyridin-4-yl)-2H 4H 5H 6H 7H-pyrazolo[4,3-c]pyridine-5-carbonyl]-4-{[(2S)-1 1 1-trifluoropropan-2-yl]oxy}benzonitrile], the IC50 was < 100 nM. The result for `COc1c(C#N)ccc(O[C@@H](C)C(F)(F)F)c1C(=O)N1CCc2nn(-c3ccncc3F)cc2C1` [Example 245, 3-[2-(3-Fluoropyridin-4-yl)-2H 4H 5H 6H 7H-pyrazolo[4,3-c]pyridine-5-carbonyl]-2-methoxy-4-{[(2S)-1 1 1-trifluoropropan-2-yl]oxy}benzonitrile] reads < 100 nM. The result for `COc1c(C#N)ccc(O[C@@H](C)C(F)(F)F)c1C(=O)N1Cc2cn(-c3cccnc3)nc2C1` [Example 246, 2-Methoxy-3-[2-(pyridin-3-yl)-2H 4H 5H 6H-pyrrolo[3,4-c]pyrazole-5-carbonyl]-4-{[(2S)-1 1 1-trifluoropropan-2-yl]oxy}benzonitrile] reads < 100 nM; that for `C[C@H](Oc1ccc(C#N)c(Cl)c1C(=O)N1Cc2cn(-c3cccnc3)nc2C1)C(F)(F)F` [Example 247], < 100 nM; that for `COc1c(C#N)ccc(O[C@@H](C)C(F)(F)F)c1C(=O)N1Cc2cn(-c3ccc(F)cc3)nc2C1` [Example 248, 3-[2-(4-Fluorophenyl)-2H 4H 5H 6H-pyrrolo[3,4-c]pyrazole-5-carbonyl]-2-methoxy-4-{[(2S)-1 1 1-trifluoropropan-2-yl]oxy}benzonitrile], < 100 nM.

In the case of `C[C@H](Oc1ccc(C#N)c(Cl)c1C(=O)N1Cc2cn(-c3ccc(F)cc3)nc2C1)C(F)(F)F` [Example 249, 2-Chloro-3-[2-(4-fluorophenyl)-2H 4H 5H 6H-pyrrolo[3,4-c]pyrazole-5-carbonyl]-4-{[(2S)-1 1 1-trifluoropropan-2-yl]oxy}benzonitrile], the IC50 was < 100 nM. The result for `COc1c(C#N)ccc(O[C@@H](C)C(F)(F)F)c1C(=O)N1Cc2cn(-c3cncc(F)c3)nc2C1` [Example 250, 3-[2-(5-Flouropyridin-3-yl)-2H 4H 5H 6H-pyrrolo[3,4-c]pyrazole-5-carbonyl]-2-methoxy-4-{[(2S)-1 1 1-trifluoropropan-2-yl]oxy}benzonitrile] reads < 100 nM. As for `CC(Oc1ccc(C#N)cc1C(=O)N1Cc2cn(-c3ccc(F)cn3)nc2C1)C(F)(F)F` (stereo not shown) [Example 251], the IC50 was 100 to 1000 nM. The result for `C[C@H](Oc1ccc(C#N)c(Cl)c1C(=O)N1Cc2cn(-c3cncc(F)c3)nc2C1)C(F)(F)F` [Example 252, 2-Chloro-3-[2-(5-fluoropyridin-3-yl)-2H 4H 5H 6H-pyrrolo[3,4-c]pyrazole-5-carbonyl]-4-{[(2S)-1 1 1-trifluoropropan-2-yl]oxy}benzonitrile] reads < 100 nM; that for `COc1c(C#N)ccc(O[C@@H](C)C(F)(F)F)c1C(=O)N1Cc2cn(-c3cccc(C)n3)nc2C1` [Example 253], < 100 nM. The result for `COc1c(C#N)ccc(O[C@@H](C)C(F)(F)F)c1C(=O)N1Cc2cn(-c3ccc(C(F)(F)F)nc3)nc2C1` [Example 254] reads < 100 nM; that for `C[C@H](Oc1ccc(C#N)c(Cl)c1C(=O)N1CCc2[nH]nc(-c3ccc(C(F)(F)F)cc3)c2C1)C(F)(F)F` [Example 255, 2-Chloro-3-{3-[4-(trifluoromethyl)phenyl]-1H 4H 5H 6H 7H-pyrazolo[4,3-c]pyridine-5-carbonyl}-4-{[(2S)-1 1 1-trifluoropropan-2-yl]oxy}benzonitrile], 1000 to 10000 nM. The result for `C[C@H](Oc1ccc(C#N)c(Cl)c1C(=O)N1Cc2cn(-c3ccc(C(F)(F)F)nc3)nc2C1)C(F)(F)F` [Example 256, 2-Chloro-3-{2-[6-(trifluoromethyl)pyridin-3-yl]-2H 4H 5H 6H-pyrrolo[3,4-c]pyrazole-5-carbonyl}-4-{[(2S)-1 1 1-trifluoropropan-2-yl]oxy}benzonitrile] reads 100 to 1000 nM. On to `COc1c(C#N)ccc(O[C@@H](C)C(F)(F)F)c1C(=O)N1CCc2[nH]nc(-c3ccc(C(F)(F)F)cc3)c2C1` [Example 257, 2-Methoxy-3-{3[4-(trifluoromethyl)phenyl]-1H 4H 5H 6H 7H-pyrazolo[4,3-c]pyridine-5-carbonyl}-4-{[(2S)-1 1 1-trifluoropropan-2-yl]oxy}benzonitrile], for which the IC50 was 100 to 1000 nM. The result for `COc1c(C#N)ccc(C2(F)CCC2)c1C(=O)N1Cc2cn(-c3ccc(F)cn3)nc2C1` [Example 258, 4-(1-Fluorocyclobutyl)-3-[2-(5-fluoropyridin-2-yl)-2H 4H 5H 6H-pyrrolo[3,4-c]pyrazole-5-carbonyl]-2-methoxybenzonitrile] reads 100 to 1000 nM; that for `COc1c(C#N)ccc(C2(F)CCOCC2)c1C(=O)N1Cc2cn(-c3ccc(F)cn3)nc2C1` [Example 259, 4-(4-Fluorooxan-4-yl)-3-[2-(5-fluoropyridin-2-yl)-2H 4H 5H 6H-pyrrolo[3,4-c]pyrazole-5-carbonyl]-2-methoxybenzonitrile], 100 to 1000 nM. Turning to `COc1c(C#N)ccc(OCC(F)(F)F)c1C(=O)N1Cc2cn(-c3ccc(F)cn3)nc2C1` [Example 260, 3-[2-(5-Fluoropyridin-2-yl)-2H 4H 5H 6H-pyrrolo[3,4-c]pyrazole-5-carbonyl]-2-methoxy-4-(2 2 2-trifluoroethoxy)benzonitrile], the IC50 was 100 to 1000 nM. The result for `COc1c(C#N)ccc(O[C@@H](C)C(F)(F)F)c1C(=O)N1Cc2cn(-c3ncccc3F)nc2C1` [Example 261] reads < 100 nM.

Consider `C[C@H](Oc1ccc(C#N)c(Cl)c1C(=O)N1Cc2cn(-c3ncccc3F)nc2C1)C(F)(F)F` [Example 262, 2-Chloro-3-[2-(3-fluoropyridin-2-yl)-2H 4H 5H 6H-pyrrolo[3,4-c]pyrazole-5-carbonyl]-4-{[(2S)-1 1 1-trifluoropropan-2-yl]oxy}benzonitrile], for which the IC50 is < 100 nM. The result for `COc1c(C#N)ccc(O[C@@H](C)C(F)(F)F)c1C(=O)N1Cc2cn(-c3ccccn3)nc2C1` [Example 263, 2-Methoxy-3-[2-(pyridin-2-yl)-2H 4H 5H 6H-pyrrolo[3,4-c]pyrazole-5-carbonyl]-4-{[(2S)-1 1 1-trifluoropropan-2-yl]oxy}benzonitrile] reads < 100 nM. The result for `C[C@H](Oc1ccc(C#N)c(Cl)c1C(=O)N1Cc2cn(-c3ccccn3)nc2C1)C(F)(F)F` [Example 264] reads < 100 nM; that for `Cc1ccc(-n2cc3c(n2)CN(C(=O)c2c(O[C@@H](C)C(F)(F)F)ccc(C#N)c2Cl)C3)cn1` [Example 265, 2-Chloro-3-[2-(6-methylpyridin-3-yl)-2H 4H 5H 6H-pyrrolo[3,4-c]pyrazole-5-carbonyl]-4-{[(2S)-1 1 1-trifluoropropan-2-yl]oxy}benzonitrile], 100 to 1000 nM; that for `COc1c(C#N)ccc(O[C@@H](C)C(F)(F)F)c1C(=O)N1Cc2cn(-c3ccc(C)nc3)nc2C1` [Example 266, 2-Methoxy-3-[2-(6-methylpyridin-3-yl)-2H 4H 5H 6H-pyrrolo[3,4-c]pyrazole-5-carbonyl]-4-{[(2S)-1 1 1-trifluoropropan-2-yl]oxy}benzonitrile], < 100 nM. The result for `C[C@H](Oc1ccc(C#N)c(Cl)c1C(=O)N1Cc2cn(-c3cccc(F)c3)nc2C1)C(F)(F)F` [Example 267, 2-Chloro-3-[2-(3-fluorophenyl)-2H 4H 5H 6H-pyrrolo[3,4-c]pyrazole-5-carbonyl]-4-{[(2S)-1 1 1-trifluoropropan-2-yl]oxy}benzonitrile] reads < 100 nM; that for `COc1c(C#N)ccc(O[C@@H](C)C(F)(F)F)c1C(=O)N1Cc2cn(-c3cccc(F)c3)nc2C1` [Example 268, 3-[2-(3-Fluorophenyl)-2H 4H 5H 6H-pyrrolo[3,4-c]pyrazole-5-carbonyl]-2-methoxy-4-{[(2S)-1 1 1-trifluoropropan-2-yl]oxy}benzonitrile], < 100 nM. For the compound `C[C@H](Oc1ccc(C#N)c(Cl)c1C(=O)N1Cc2cn(-c3ccccc3F)nc2C1)C(F)(F)F` [Example 269, 2-Chloro-3-[2-(2-fluorophenyl)-2H 4H 5H 6H-pyrrolo[3,4-c]pyrazole-5-carbonyl]-4-{[(2S)-1 1 1-trifluoropropan-2-yl]oxy}benzonitrile], the IC50 was < 100 nM. In the case of `COc1c(C#N)ccc(O[C@@H](C)C(F)(F)F)c1C(=O)N1Cc2cn(-c3ccccc3F)nc2C1` [Example 270, 3-[2-(2-Fluorophenyl)-2H 4H 5H 6H-pyrrolo[3,4-c]pyrazole-5-carbonyl]-2-methoxy-4-{[(2S)-1 1 1-trifluoropropan-2-yl]oxy}benzonitrile], the IC50 was < 100 nM. The result for `Cc1cccnc1-n1cc2c(n1)CN(C(=O)c1c(O[C@@H](C)C(F)(F)F)ccc(C#N)c1Cl)C2` [Example 271, 2-Chloro-3-[2-(3-methylpyridin-2-yl)-2H 4H 5H 6H-pyrrolo[3,4-c]pyrazole-5-carbonyl]-4-{[(2S)-1 1 1-trifluoropropan-2-yl]oxy}benzonitrile] reads 100 to 1000 nM.
